Results on 9 molecules are retold here after patent US20260167638A1, “PHARMACEUTICAL COMPOUND, SALTS THEREOF, FORMULATIONS THEREOF, AND METHODS OF MAKING AND USING SAME” (Genentech, Inc., priority 2018, published 2026).

A short description of this series: Solubility in pure water at 25° C. with PXRD of solid residues. The settings on record: for pH (24 hrs) / pH (1 hr): pH of solubility sample; for pH (24 hrs) / S 24 hrs / pH (1 hr) / S 1 hr: pure water, 25° C.; for S 24 hrs: 24 hours equilibration; for pH (1 hr) / S 1 hr: one hour. It counts as physicochemical. How it is done: Using a similar strategy as described above, these salts were prepared by evaporation from a solution of free base and acid in a solvent (e.g., methanol-dichloromethane 1:1, ethyl acetate-dichloromethane 1:2, isopropanol, and the like). If necessary, an amorphous salt produced in this way was crystallized by stirring the amorphous material in an appropriate solvent (e.g., ethyl acetate, acetonitrile, and the like).

The mark [1] stands for this setting: Table 4: free base and amorphous salt forms.
The mark [2] stands for this setting: Table 5: free base and crystalline salt forms.

In the case of `Br.Cn1cc(-c2cn(-c3ccc(OC(F)(F)F)cc3)c(=O)c3ncn(C)c23)cn1` [mono-HBr crystalline], the “pH (24 hrs)” value is recorded as 1.9 and the “S 24 hrs” value came to 0.31 mg/mL.

Regarding `Br.Cn1cc(-c2cn(-c3ccc(OC(F)(F)F)cc3)c(=O)c3ncn(C)c23)cn1` [mono-HBr amorphous], the “pH (24 hrs)” value amounted to 1.6 and the “S 24 hrs” value turned out to be 0.62 mg/mL. Moreover, under setting [1], the “Solubility (24 hours)” value was determined as 620 µg/mL.

On to `Cn1cc(-c2cn(-c3ccc(OC(F)(F)F)cc3)c(=O)c3ncn(C)c23)cn1.O=[N+]([O-])O` [mono-nitrate crystalline], for which the “pH (24 hrs)” value was 1.8, the “pH (1 hr)” value turned out to be 1.8, the “S 24 hrs” value worked out at 0.38 mg/mL and the “S 1 hr” value was found to be 0.42 mg/mL.

With `Cl.Cl.Cn1cc(-c2cn(-c3ccc(OC(F)(F)F)cc3)c(=O)c3ncn(C)c23)cn1` [di-HCl crystalline], the “pH (24 hrs)” value is listed as 1.5, the “pH (1 hr)” value amounted to 1.3, the “S 24 hrs” value was found to be 0.76 mg/mL and the “S 1 hr” value is 1.14 mg/mL. The “Solubility (24 hours)” value under setting [2] was 760 µg/mL.

Take `Cl.Cn1cc(-c2cn(-c3ccc(OC(F)(F)F)cc3)c(=O)c3ncn(C)c23)cn1` [mono-HCl amorphous]: the “pH (24 hrs)” value is 1.6 and the “S 24 hrs” value came to 0.70 mg/mL. The “Solubility (24 hours)” value under setting [1] was determined as 700 µg/mL.

With `Cn1cc(-c2cn(-c3ccc(OC(F)(F)F)cc3)c(=O)c3ncn(C)c23)cn1.O=S(=O)(O)O` [mono-sulfate amorphous], the “pH (24 hrs)” value amounted to 1.4, the “pH (1 hr)” value was determined as 1.2 and the “S 24 hrs” value is 0.84 mg/mL. Under setting [1], the “Solubility (24 hours)” value was determined as 840 µg/mL.

Take `Cn1cc(-c2cn(-c3ccc(OC(F)(F)F)cc3)c(=O)c3ncn(C)c23)cn1.O=[N+]([O-])O` [mono-nitrate amorphous]: the “pH (24 hrs)” value turned out to be 1.9 and the “S 24 hrs” value came out at 0.33 mg/mL.

In the case of `Cl.Cn1cc(-c2cn(-c3ccc(OC(F)(F)F)cc3)c(=O)c3ncn(C)c23)cn1` [mono-HCl crystalline], the “pH (24 hrs)” value amounted to 1.6 and the “S 24 hrs” value worked out at 0.42 mg/mL.

Regarding `Br.Br.Cn1cc(-c2cn(-c3ccc(OC(F)(F)F)cc3)c(=O)c3ncn(C)c23)cn1` [di-HBr crystalline], the “pH (24 hrs)” value turned out to be 1.6, the “pH (1 hr)” value came to 1.6, the “S 24 hrs” value came out at 0.48 mg/mL and the “S 1 hr” value turned out to be 0.54 mg/mL. For the same molecule, the “Solubility (24 hours)” value under setting [2] worked out at 480 µg/mL.
